Where a name gives a salt, the structure may show the parent alone.
Experiments:
[1] = tested on: naive adult male Sprague-Dawley rats; experiment: Rat licking (Vogel conflict) test for anxiolytic activity; format: in vivo; conditions: subcutaneous, 30 min before test, control 119 ± 30
Protocol: Following the procedure described by Vogel et al., Psychopharmacologia 21, 1-7 (1971), thirsty naive rats are periodically administered shocks in an appropriate test apparatus for licking water, thereby setting up a simple conflict procedure. In the following experiment, naive adult male Sprague-Dawley rats (approximately 170 g) are randomly divided into 5 groups and deprived of water for 48 hours prior to the test session. Food is available in the home cage at all times.
Thirty minutes following subcutaneous injection, each animal is placed in the apparatus, permitted to find the drinking tube and complete 20 licks before shock is administered. The test animal controls shock duration by withdrawing from the drinking tube. At the termination of the first shock, shocks are delivered following each twentieth lick. The number of licks, indicating the number of shocks taken during a 3 minute period is recorded for each animal, compared with placebo, and with animals treated with established anxiolytic agents. A "release" from suppressed licking response, i.e., a greater number of licks compared to controls, is predictive of anxiolytic activity.
Following essentially this same procedure, the following results are observed utilizing the compound of Example II, i.e., 2-[4-[4-(2-pyrimidinyl)-1-piperazinyl]butylimino]-tetrahydro-4,4-dimethyl- 6H-1,3-thiazin-6-one

[2] = molecular target: T1, 5-HT1A recognition sites (Rattus norvegicus, UniProt P19327); experiment: 5-HT1A radioligand binding ([3H]-8-OH-DPAT); conditions: rat frontal cortex homogenate, 37° C. 15 min, read-out: 5-HT1A Binding Affinity Rat Brain Cortex (pIC50) (converted)
T1 sequence (P19327 1-422): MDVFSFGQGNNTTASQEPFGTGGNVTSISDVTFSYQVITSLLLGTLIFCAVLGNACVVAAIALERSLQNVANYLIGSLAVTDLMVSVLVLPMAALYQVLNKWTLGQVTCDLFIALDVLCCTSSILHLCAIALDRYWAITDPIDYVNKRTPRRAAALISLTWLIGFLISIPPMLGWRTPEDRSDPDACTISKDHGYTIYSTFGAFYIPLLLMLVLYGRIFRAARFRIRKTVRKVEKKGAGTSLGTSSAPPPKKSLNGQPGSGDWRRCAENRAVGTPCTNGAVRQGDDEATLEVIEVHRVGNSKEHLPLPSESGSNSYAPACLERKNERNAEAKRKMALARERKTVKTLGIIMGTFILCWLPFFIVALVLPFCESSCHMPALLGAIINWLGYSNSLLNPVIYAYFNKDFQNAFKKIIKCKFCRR
Protocol: Radioligand binding studies of the 5-HT1A recognition sites are conducted in the following manner. Male normotensive Sprague-Dawley rat frontal cortex is dissected, frozen in liquid nitrogen and stored at -20° C. until needed. Tissues from 4-8 rats are pooled and homogenized in 70 vol Tris-HCl buffer (50 mM, pH 7.7), using a kinematica Polytron (setting 2/3 max speed, 20 sec). The homogenate is centrifuged (36500×g for 10 min), the pellet re-homogenised in the same volume of buffer and the process is repeated two more times. Between the second and third centrifugations the tissue homogenate is incubated at 37° C. for 10 min. The final pellet is suspended in the same volume of Tris buffer containing 10 µM pargyline, 5.7 mM CaCl2 and 0.1% ascorbic acid. This suspension is incubated for 10 min at 37° C. and then stored on ice until used in the binding assay.
Tissue homogenate (0.7 ml), radioactive ligand (0.1 ml) and the appropriate concentration of test compound (0.1 ml), together with buffer to a final volume of 1 ml are incubated at 37° C. for 15 min. Incubations are terminated by rapid filtration through Whatman GF/B filters followed by three 5 ml washes with ice-cold Tris-HCl buffer (50 mM, pH 7.0). Radioactivity is measured following extraction into Aquasol-Z (NEN) at an efficiency of 45-50%. The radioligand used to label the 5-HT1A recognition sites and its concentration is [^3 H]-8-hydroxy-2-(di-n-propylamino)-tetralin, [^3 H]-8-OH-DPAT, […].
Following essentially the above procedure, the following compounds were tested. Results are expressed as pIC50 ([…] concentration of test compound which inhibits specific binding by 50%).

| SMILES | Licks taken over 3 min. period ([1]; dose 0.75 mg/kg) | IC50 [2] [nM] | Licks taken over 3 min. period ([1]; dose 0.05 mg/kg) | Licks taken over 3 min. period ([1]; dose 0.25 mg/kg) | Licks taken over 3 min. period ([1]; dose 1.25 mg/kg) |
| --- | --- | --- | --- | --- | --- |
| CN1C(=O)CN=C(c2ccccc2)c2cc(Cl)ccc21 [Diazepam, reference compound] | 247 ± 36 | – | – | – | – |
| CC1(C)CC(=O)SC(=NCCCCNCC2COc3ccccc3O2)N1 (stereo not shown) [Example I, 2-[4-[(2,3-dihydro-1,4-benzodioxin-2-yl)methylamino]butylimino]-tetrahydro-4,4-dimethyl-6H-1,3-thiazin-6-one oxalate] | – | 2.82 | – | – | – |
| CC1(C)CC(=O)SC(=NCCCCN2CCN(c3ncccn3)CC2)N1 [Example II, 2-[4-[4-(2-Pyrimidinyl)-1-piperazinyl]butylimino]-tetrahydro4,4-dimethyl-6H-1,3-thiazin-6-one] | – | 47.9 | 150 ± 28 | 223 ± 34 | 220 ± 27 |
| O=C1CC2(CCCC2)NC(=NCCCCN2CCN(c3ncccn3)CC2)S1 [Example III, 2-[4-[4-(2-Pyrimidinyl)-1-piperazinyl]-butylimino]-tetrahydro-4,4-tetramethylene-6H-1,3-thiazin-6-one] | – | 166 | – | – | – |

Reference: patent publication US4704389A, “Aromatic omega-alkyl-imino-tetrahydro-6H-1,3-thiazin-6-one derivatives” (Merrell Dow Pharmaceuticals Inc., priority 1987, dated 1987)
